# Source: US12156880B2, “Heterocyclic RIP1 kinase inhibitors” (Rigel Pharmaceuticals, Inc., priority 2021, dated 2024)
# What was measured:
# RIPK1 = molecular target: T1, RIPK1 (Homo sapiens, UniProt Q13546); assay: RIPK1 ADP-Glo biochemical kinase assay; conditions: read-out: RIPK1 ADP-Glo Kinase (IC50)
# T1 sequence (Q13546 1-671): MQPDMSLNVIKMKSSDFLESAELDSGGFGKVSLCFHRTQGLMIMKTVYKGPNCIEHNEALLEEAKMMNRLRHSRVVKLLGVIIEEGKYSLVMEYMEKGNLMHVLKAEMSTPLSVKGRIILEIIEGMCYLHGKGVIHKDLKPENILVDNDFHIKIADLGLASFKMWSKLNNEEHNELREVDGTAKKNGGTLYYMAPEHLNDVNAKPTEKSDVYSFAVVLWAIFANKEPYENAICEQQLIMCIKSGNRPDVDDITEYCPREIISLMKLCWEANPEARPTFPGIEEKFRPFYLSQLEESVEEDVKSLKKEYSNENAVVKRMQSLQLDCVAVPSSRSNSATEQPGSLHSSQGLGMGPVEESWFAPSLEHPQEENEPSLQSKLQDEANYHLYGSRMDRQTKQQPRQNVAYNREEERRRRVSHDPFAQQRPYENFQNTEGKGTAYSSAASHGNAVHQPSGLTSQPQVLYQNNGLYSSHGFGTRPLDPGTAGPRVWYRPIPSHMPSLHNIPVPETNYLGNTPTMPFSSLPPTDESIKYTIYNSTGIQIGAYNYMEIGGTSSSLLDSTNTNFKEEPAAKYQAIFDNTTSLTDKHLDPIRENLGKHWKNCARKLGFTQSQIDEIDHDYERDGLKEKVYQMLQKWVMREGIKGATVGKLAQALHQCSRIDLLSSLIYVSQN
# Method in brief: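 RIPK1 at 31 ng/well in Tris pH 7.4 buffer with MgCl2, BSA, DTT and MnCl2, reacted with compounds (duplicate) for 30 min at 30 °C. ADP formed detected by ADP-Glo: 40 min stop/depletion, then 30 min detection reagent at room temperature; luminescence read.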
# L929 cells = assay: L929 cell necroptosis assay (TNFa + zVAD, CellTiter-Glo recovery); type: cell-based, murine; conditions: Mus musculus, L929, 18 h, TNFa 2 ng/mL + zVAD-fmk, read-out: L929-CTG-recovery, L929, TNFa + zVAD (IC50)
# Method in brief: (§1)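 Human U937 (50K/well, 60 uM zVAD-fmk medium, plated same day) or murine L929 (10K/well, plated 18 h, then 40 uM zVAD-fmk medium) were grown in RPMI with 10% FBS. Both were pretreated with compound for 1 h at 37 °C before TNFa at 2 ng/mL final. Viability was read by CellTiter-Glo luminescence after 18 h.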
# U937 cells = assay: U937 cell necroptosis assay (TNFa + zVAD, CellTiter-Glo recovery); type: cell-based; conditions: Homo sapiens, U-937, 18 h, TNFa 2 ng/mL + zVAD-fmk, read-out: U937 Zvad TNF CTG Recovery, U937, TNFa + zVAD (IC50)
# Method in brief: as §1
IC50 (RIPK1) [nM],SMILES,IC50 (L929 cells) [nM],IC50 (U937 cells) [nM]
15.4,"Cc1nc(Cc2ccnc(C(=O)N[C@H]3COc4ccc(C#CC5(O)COC5)cc4N(C)C3=O)c2)cs1 [I-66, (S)—N-(7-((3-hydroxyoxetan-3-yl)ethynyl)-5-methyl-4-oxo-2,3,4,5-tetrahydrobenzo[b][1,4]oxazepin-3-yl)-4-((2-methylthiazol-4-yl)methyl)picolinamide]",98,35.4
24,"CCc1nc(Cc2ccnc(C(=O)N[C@H]3COc4ccc(C#CC(C)(C)O)cc4N(C)C3=O)c2)cs1 [I-98, (S)-4-((2-ethylthiazol-4-yl)methyl)-N-(7-(3-hydroxy-3-methylbut-1-yn-1-yl)-5-methyl-4-oxo-2,3,4,5-tetrahydrobenzo[b][1,4]oxazepin-3-yl)picolinamide]",111,15.5
51.3,"CN1C(=O)[C@@H](NC(=O)c2cc(Oc3cccnc3C(F)(F)F)ccn2)COc2ccc(C#CC(C)(C)O)cc21 [I-87, (S)—N-(7-(3-hydroxy-3-methylbut-1-yn-1-yl)-5-methyl-4-oxo-2,3,4,5-tetrahydrobenzo[b][1,4]oxazepin-3-yl)-4-((2-(trifluoromethyl)pyridin-3-yl)oxy)picolinamide]",11200,536
16.8,"CN1C(=O)[C@@H](NC(=O)c2cc(Oc3cccnc3F)ccn2)COc2ccc(C#CC(C)(C)O)cc21 [I-54, (S)-4-((2-fluoropyridin-3-yl)oxy)-N-(7-(3-hydroxy-3-methylbut-1-yn-1-yl)-5-methyl-4-oxo-2,3,4,5-tetrahydrobenzo[b][1,4]oxazepin-3-yl)picolinamide]",573,7.1
15,"CN1C(=O)[C@@H](NC(=O)c2cc(Oc3cnn(C)c3)ccn2)COc2ccc(C#CC3(O)COC3)cc21 [I-127, (S)—N-(7-((3-hydroxyoxetan-3-yl)ethynyl)-5-methyl-4-oxo-2,3,4,5-tetrahydrobenzo[b][1,4]oxazepin-3-yl)-4-((1-methyl-1H-pyrazol-4-yl)oxy)picolinamide]",198,6.7
15.4,"Cc1cccc(Cc2cnn(C(=O)N[C@H]3COc4ccc(C#CC5(O)COC5)cc4N(C)C3=O)c2)n1 [I-103, (S)—N-(7-((3-Hydroxyoxetan-3-yl)ethynyl)-5-methyl-4-oxo-2,3,4,5-tetrahydrobenzo[b][1,4]oxazepin-3-yl)-4-((6-methylpyridin-2-yl)methyl)-1H-pyrazole-1-carboxamide]",1290,105
22.4,"CN1C(=O)[C@@H](NC(=O)n2cc(Cc3cccc(F)n3)cn2)COc2ccc(C#CC(C)(C)C)cc21 [I-106, (S)—N-(7-(3,3-Dimethylbut-1-yn-1-yl)-5-methyl-4-oxo-2,3,4,5-tetrahydrobenzo[b][1,4]oxazepin-3-yl)-4-((6-fluoropyridin-2-yl)methyl)-1H-pyrazole-1-carboxamide]",750,4.3
10.5,"CN1C(=O)[C@@H](NC(=O)c2cc(Oc3cccnc3F)ccn2)COc2ccc(C#CC3(O)COC3)cc21 [I-56, (S)-4-((2-fluoropyridin-3-yl)oxy)-N-(7-((3-hydroxyoxetan-3-yl)ethynyl)-5-methyl-4-oxo-2,3,4,5-tetrahydrobenzo[b][1,4]oxazepin-3-yl)picolinamide]",275,2.9

# Second part, the molecule before the results:
SMILES,IC50 (RIPK1) [nM],IC50 (L929 cells) [nM],IC50 (U937 cells) [nM]
"CN1C(=O)[C@@H](NC(=O)c2cc(Cc3cccnc3)ccn2)COc2ccc(C#CC(C)(C)O)cc21 [I-61, (S)—N-(7-(3-hydroxy-3-methylbut-1-yn-1-yl)-5-methyl-4-oxo-2,3,4,5-tetrahydrobenzo[b][1,4]oxazepin-3-yl)-4-(pyridin-3-ylmethyl)picolinamide]",24.3,2420,19.2
"CN1C(=O)[C@@H](NC(=O)n2cc(Cc3cccc(F)n3)cn2)CCc2c(F)cc(C#CC(C)(C)CO)cc21 [I-122, (S)—N-(6-Fluoro-8-(4-hydroxy-3,3-dimethylbut-1-yn-1-yl)-1-methyl-2-oxo-2,3,4,5-tetrahydro-1H-benzo[b]azepin-3-yl)-4-((6-fluoropyridin-2-yl)methyl)-1H-pyrazole-1-carboxamide]",32.5,8670,97.4
"CN1C(=O)[C@@H](NC(=O)n2cc(Cc3cccc(F)n3)cn2)CCc2ccc(C#CC(C)(C)O)cc21 [I-114, (S)-4-((6-Fluoropyridin-2-yl)methyl)-N-(8-(3-hydroxy-3-methylbut-1-yn-1-yl)-1-methyl-2-oxo-2,3,4,5-tetrahydro-1H-benzo[b]azepin-3-yl)-1H-pyrazole-1-carboxamide]",19.4,51.2,1
"CN1C(=O)[C@@H](NC(=O)n2cc(Cc3cccc(F)n3)cn2)CCc2ccc(C#CC3(O)CCOCC3)cc21 [I-116, (S)-4-((6-Fluoropyridin-2-yl)methyl)-N-(8-((4-hydroxytetrahydro-2H-pyran-4-yl)ethynyl)-1-methyl-2-oxo-2,3,4,5-tetrahydro-1H-benzo[b]azepin-3-yl)-1H-pyrazole-1-carboxamide]",12.9,69.4,0.5
"CN1C(=O)[C@@H](NC(=O)c2cc(Oc3cccnc3F)ccn2)COc2ccc(C#CC(C)(C)C)cc21 [I-95, (S)—N-(7-(3,3-dimethylbut-1-yn-1-yl)-5-methyl-4-oxo-2,3,4,5-tetrahydrobenzo[b][1,4]oxazepin-3-yl)-4-((2-fluoropyridin-3-yl)oxy)picolinamide]",63.4,354,3.2
"CN1C(=O)[C@@H](NC(=O)c2cc(Cc3cccc(F)n3)ccn2)COc2ccc(C#CC3COC3)cc21 [I-84, (S)-4-((6-fluoropyridin-2-yl)methyl)-N-(5-methyl-7-(oxetan-3-ylethynyl)-4-oxo-2,3,4,5-tetrahydrobenzo[b][1,4]oxazepin-3-yl)picolinamide]",19.3,768,9.4
"Cc1cccc(Cc2ccnc(C(=O)N[C@H]3COc4ccc(C#CC(C)(C)O)cc4N(C)C3=O)c2)n1 [I-11, (S)—N-(7-(3-hydroxy-3-methylbut-1-yn-1-yl)-5-methyl-4-oxo-2,3,4,5-tetrahydrobenzo[b][1,4]oxazepin-3-yl)-4-((6-methylpyridin-2-yl)methyl)picolinamide]",120,7430,126
"CN1C(=O)[C@@H](NC(=O)c2cc(Oc3cncc(F)c3)ccn2)COc2ccc(C#CC3(O)COC3)cc21 [I-59, (S)-4-((5-fluoropyridin-3-yl)oxy)-N-(7-((3-hydroxyoxetan-3-yl)ethynyl)-5-methyl-4-oxo-2,3,4,5-tetrahydrobenzo[b][1,4]oxazepin-3-yl)picolinamide]",15.9,382,3.5
"Cc1ccc(Cc2ccnc(C(=O)N[C@H]3COc4ccc(C#CC(C)(C)O)cc4N(C)C3=O)c2)cn1 [I-72, (S)—N-(7-(3-hydroxy-3-methylbut-1-yn-1-yl)-5-methyl-4-oxo-2,3,4,5-tetrahydrobenzo[b][1,4]oxazepin-3-yl)-4-((6-methylpyridin-3-yl)methyl)picolinamide]",33.1,3010,190
"Cc1cccc(Cc2cnn(C(=O)N[C@H]3COc4ccc(C#CC(C)(C)O)cc4N(C)C3=O)c2)n1 [I-2, (S)—N-(7-(3-Hydroxy-3-methylbut-1-yn-1-yl)-5-methyl-4-oxo-2,3,4,5-tetrahydrobenzo[b][1,4]oxazepin-3-yl)-4-((6-methylpyridin-2-yl)methyl)-1H-pyrazole-1-carboxamide]",42.2,1800,49.7
"Cc1cccc(Cc2ccnc(C(=O)N[C@H]3COc4ccc(C#CC5(O)COC5)cc4N(C)C3=O)c2)n1 [I-12, (S)—N-(7-((3-hydroxyoxetan-3-yl)ethynyl)-5-methyl-4-oxo-2,3,4,5-tetrahydrobenzo[b][1,4]oxazepin-3-yl)-4-((6-methylpyridin-2-yl)methyl)picolinamide]",25.2,3470,73.4
"CN1C(=O)[C@@H](NC(=O)c2cc(Cc3cscn3)ccn2)COc2ccc(C#CC(C)(C)O)cc21 [I-77, (S)—N-(7-(3-hydroxy-3-methylbut-1-yn-1-yl)-5-methyl-4-oxo-2,3,4,5-tetrahydrobenzo[b][1,4]oxazepin-3-yl)-4-(thiazol-4-ylmethyl)picolinamide]",21.8,724,62.2
